# Assay results taken from patent US12116387B2, “Antimicrobial peptides” (priority 2021, dated 2024).
# Key:
# [1] = test system: IL-12, TNFα, IL-6; assay: Cytokines in peritoneal fluid of infected mice (ELISA); format: in vivo, C57BL/6 mice; conditions: tracked for 48 h; mast-MO 10 mg Kg^−1, mast-L 5 mg Kg^−1
# Protocol: […] PBS and imipenem (10 mg Kg^−1) were used as negative and positive controls, respectively. Data were expressed as mean±standard deviation. Statistical analysis was performed using Bonferroni test. ***p<0.001 as significant compared to the control.
# To test whether the FLPII motif within the mast-MO sequence led to increased immunomodulatory and chemotactic properties with respect to mast-L, ELISA experiments were performed using the peritoneal fluid collected from mice (FIG. 5a). C57BL/6 mice were infected with both Gram-negative and Gram-positive pathogens and administered either mast-L or mast-MO intraperitoneally. For mice infected with E. coli ATCC8739, we monitored the peritoneal cavity to detect and quantify the release and presence of several immune mediators (FIG. 4E). […] This effect was similar to the positive control group of mice treated with […] (TGA) (FIG. 4B). […] After 24 h, the leukocyte recruitment levels in mast-MO-treated mice dropped to ˜10^6, likely attributed to the resolution of the infection by the peptide (FIGS. 5B and 5C). […] We monitored, via ELISAs, the cytokine profiles present within the peritoneal cavity of mice infected with E. coli ATCC8739 and S. aureus ATCC29213 (FIGS. 4E and FIG. 4F, respectively) and treated with a single dose of peptide. […]
# [2] = test system: leukocytes; assay: Leukocyte migration to the peritoneal cavity of mice infected with E. coli ATCC8739; format: in vivo, C57BL/6 mice; conditions: mast-MO 10 mg Kg^−1, mast-L 5 mg Kg^−1
# Protocol: To test whether the FLPII motif within the mast-MO sequence led to increased immunomodulatory and chemotactic properties with respect to mast-L, ELISA experiments were performed using the peritoneal fluid collected from mice (FIG. 5a). C57BL/6 mice were infected with both Gram-negative and Gram-positive pathogens and administered either mast-L or mast-MO intraperitoneally. For mice infected with E. coli ATCC8739, we monitored the peritoneal cavity to detect and quantify the release and presence of several immune mediators (FIG. 4E). […] This effect was similar to the positive control group of mice treated with […] (TGA) (FIG. 4B). […] We monitored, via ELISAs, the cytokine profiles present within the peritoneal cavity of mice infected with E. coli ATCC8739 and S. aureus ATCC29213 (FIGS. 4E and FIG. 4F, respectively) and treated with a single dose of peptide. […]
# Isolation of leukocytes from the peritoneal cavity of mice. Leukocyte migration into the peritoneal cavity of uninfected C57BL/6 mice treated with 10 mg Kg^−1 of peptides was evaluated to assess the chemotactic activity of the peptides, as previously described (11). […] Leukocyte counts present in the in peritoneal cavity of mice infected with E. coli ATCC 8739 were quantified. […] The results are expressed as the number of cells per cavity (48).
# [3] = test system: human red blood cells (hRBCs); assay: Cytotoxicity / hemolysis against human red blood cells; format: cell-based; conditions: hRBCs
# Protocol: Once the mechanisms by which the peptide targeted bacterial cells was elucidawted, the effect of the pentapeptide motif insertion on cytotoxicity against mammalian cells was evaluated.
# [4] = test system: S. aureus ATCC29213; assay: Systemic sepsis infection mouse model, S. aureus ATCC29213; format: in vivo; conditions: 5 mg Kg^−1 i.p.
# Protocol: FIG. 5A-5I pertains to a study of the anti-infective activity of mast-MO against Gram-negative and Gram-positive pathogens in a lethal sepsis infection model. In FIG. 5A mice were infected with bacteria, treated with each peptide or antibiotic and monitored for 8 days. Survival and cell counts after 24 h, respectively, are shown for E. coli ATCC8739 (2×10^4 CFU/mL inoculum) FIG. 5B and FIG. 5C, S. aureus ATCC29213 (2×10^9 CFU/mL inoculum) FIG. 5D and FIG. 5E, E. coli 1812446 (KPC-positive) (2×10^4 CFU inoculum) FIG. 5F and FIG. 5G, and S. aureus (MRSA) ATCC33591 (2×10^9 CFU inoculum) FIG. 5H and FIG. 5I. Mice were treated intraperitoneally (i.p.) with 1, 5 and 10 mg Kg^−1 of mast-L, mast-MO or 10 mg Kg^−1 of the antibiotics gentamicin and imipenem. PBS was used as a control for the untreated group of mice. Treatments were administered 3 h post-infection. Data are expressed as the mean±standard deviation. Statistical analysis was performed using Bonferroni test. […], **p<0.01, ***p<0.001 compared to the untreated control.
# Systemic bacterial infection mouse model. […] Animals were humanely killed 24 h after bacterial administration.
sequence,measurement,setting,value
NLKALAALAKKIL [Mast-L],"Pro-inflammatory cytokines IL-12, TNFα and IL-6 in the peritoneal cavity",[1],repressed
same,"Leukocyte recruitment over the time period tested, in words",[2],did not significantly induce leukocyte recruitment
same,"Cytotoxic activity, Peptide Concentration",[3],7 µmol/L
same,Survival,[4],80%
